Measurements as given in patent US9403820B2, “Kinase inhibitor polymorphs” (INTELLIKINE LLC, priority 2011, dated 2016).
Counter-ions that a name gives are not always drawn.

Legend:
Format in all cases: physicochemical
[1] = Stability at 40° C./75% RH (XRPD after storage); settings: 3 weeks storage, by XRPD
[2] = VH-XRPD (variable humidity XRPD) form stability
From the text: Variable humidity XRPD analysis was undertaken in order to determine if two hydrated species were present. […] On increasing the humidity, the material started to re-hydrate from 13% RH, and reverted completely back to HCl Pattern 2 by 45% RH. […] Only one XRPD pattern was observed upon dehydration and it is not possible to conclude whether this is a totally anhydrous or partially hydrated form.

[3] = GVS (gravimetric vapor sorption) moisture sorption isotherm
Procedure: Sorption isotherms were obtained using a SMS DVS Intrinsic moisture sorption analyser, controlled by DVS Intrinsic Control software v1.0.0.30. The sample temperature was maintained at 25° C. by the instrument controls. The humidity was controlled by mixing streams of dry and wet nitrogen, with a total flow rate of 200 mL.min−1 The relative humidity was measured by a calibrated Rotronic probe (dynamic range of 1.0-100% RH), located near the sample. The weight change (mass relaxation) of the sample as a function of % RH was constantly monitored by the microbalance (accuracy±0.005 mg). Approximately 5-20 mg of sample was placed in a tared mesh stainless steel basket under ambient conditions. The sample was loaded and unloaded at 40% RH and 25° C. (typical room conditions). A moisture sorption isotherm was performed as outlined below (2 scans giving 1 complete cycle). The standard isotherm was performed at 25° C. at 10% RH intervals over a 0-90% RH range. Data analysis was undertaken in Microsoft Excel using DVS Analysis Suite v6.0.0.7.

[4] = Solid form stability on vacuum drying (XRPD)
Procedure: HCl Pattern 1: Formula I free base (ca. 500 mg) was suspended in nitromethane (50 volumes, 25 mL) with stirring. HCl (1M in THF; 1.2 equivalents; 1.65 mL) was added. The suspension was subjected to heating/cooling cycles between RT and 50° C., 4 hours at each condition for one week. […] The solid was isolated by vacuum filtration and dried under vacuum at RT for 16 hours.

SMILES | Stability at 40° C./75% RH [1] | VH-XRPD: RH below which the material starts to change ([2]; full conversion to HCl Pattern 3 at 0.5% RH) | VH-XRPD: RH to which the form is stable ([2]; then starts to change to HCl Pattern 3) [% RH] | GVS reversible uptake ([3]; between 40-90% RH, 25° C.) | GVS: RH to which the form appeared stable ([3]; dehydration observed below, rehydration by 40%) [% RH] | GVS water content at the end of the experiment ([3]; end of GVS experiment) [wt %] | GVS water content at the end of the experiment, equivalents ([3]; end of GVS experiment) [eqs] | Form stability on drying under vacuum at RT for 16 hours (XRPD) [4]
Nc1nc2cc(-c3ccc4ncc(C(=O)N5CCOCC5)n4c3)ccc2o1 [HCl Pattern 2] | No significant changes observed by XRPD after 3 weeks storage | The material starts to change below 25% RH, with full conversion to HCl | ≥ 14 | Reversible uptake of ca. 6 wt % between 40-90% RH. | ≥ 30 | 10.6 | 3.0 | –
Nc1nc2cc(-c3ccc4ncc(C(=O)N5CCOCC5)n4c3)ccc2o1 [HCl Pattern 1] | – | – | – | – | – | – | – | partially reverted to the free base
